Data on 16 compounds can be found in US20240190849A1, “AMINOPYRIMIDINE COMPOUNDS AND METHODS OF THEIR USE” (TYRA BIOSCIENCES, INC., priority 2021, published 2024).

The term Kd denotes the concentration at which binding is half-saturated. As a reminder, the IC50 is the point on the concentration scale where inhibition reaches its midpoint.

The target in one test is T1, FGFR3 (V555M) (Homo sapiens, UniProt P22607, V555M).
T1 construct: made in house; host or cells: E. coli derived from BL21, infected with T7 phage
Put plainly: Kinase binding assay (kinase-tagged T7 phage, affinity beads, qPCR readout), FGFR3 (V555M). The following applies: FGFR binding data. In outline: (§1)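 First, streptavidin beads were loaded with biotinylated ligand and blocked. Kinase, beads and compound were then shaken together for 1 hour at room temperature in SeaBlock/PBS/Tween/DTT buffer. Finally, eluted kinase was measured by qPCR and Kd fitted with Hill slope −1.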
For orientation: Quantitative PCR measures a nucleic acid by following its amplification.

In a further test the target is T2, FGFR3 (Homo sapiens, UniProt P22607).
T2 construct: made in house; host or cells: E. coli derived from BL21, infected with T7 phage
Put plainly: Kinase binding assay (kinase-tagged T7 phage, affinity beads, qPCR readout), FGFR3. The note with it: FGFR binding data. In outline: as §1

Another test has as its target T3, FGFR2 (Homo sapiens, UniProt P21802).
T3 construct: made in house; host or cells: E. coli derived from BL21, infected with T7 phage
In words: Kinase binding assay (kinase-tagged T7 phage, affinity beads, qPCR readout), FGFR2. The note with it: FGFR binding data. An outline of the steps:
as §1

The subject of test [1] is RT112/84 (Bladder Cancer), FGFR3-TACC3 fusion. Put plainly: Cancer cell viability assay (Cell Titer-Glo), RT112/84. It is filed as cell-based. The following applies: Homo sapiens, RT112/84 cells, 72 hours. The text has this:
(§2) RT112/84, UM-UC-14, SNU-16 and KG-1 Cancer Cell Line Cell Viability Assays
(§3) To detect the change of intracellular ATP by Cell Titer-Glo@ and to evaluate the inhibitory effect of the compounds on cancer cell lines by determining the in vitro IC50 value of the compounds.
(§4) Cell Titer-Glo@ 2.0 Luminescent cell viability assay reagent was purchased from Promega (Madison, WI). RT112/84, SNU-16, and KG-1 cell lines were purchased from American Type Culture Collection (Manassas, VA). UM-UC-14 cell line was purchased from Sigma (St. Louis, MO). RT112/84, UM-UC-14, SNU-16, and KG-1 cells were cultured in RPMI1640 media supplemented with 10% fetal bovine serum. Cultures were maintained at 37° C. in a humidified atmosphere of 5% CO2 and 95% air.
(§5) Cell Viability Assay Procedure: Cells were plated in 96-well clear bottom/white plates (Corning #3903) at 10,000 cells/well in 100 μl of media, incubated overnight. The next day, test compound DMSO stock solutions were made at 10 mM and 2 μM final concentration. Compounds were then added to cells in a 9-dose, […] dilution series starting at 30 μM with an HP 300e Digital Dispenser (each dose was applied in triplicate). DMSO was backfilled to each well up to 301 nL total volume of test compound+DMSO, and a total of 301 nL DMSO was added to a control/no test compound well in triplicate. The cells in cell culture plates were incubated with the compounds at 37° C. and 5% CO2 for 72 hours. Then 50 μl of Cell Titer Glo 2.0 reagent was added to each well of the cell culture plates. The contents were covered from light and mixed on an orbital shaker at room temperature for 10 min. Luminescence was recorded by a Synergy H1 Microplate Reader (Biotek, Winooski, VT). Cells were assessed as a percentage of DMSO only treated control cells. Curves were plotted and IC50 values were calculated using the GraphPad Prism 8 program based on a sigmoidal dose-response equation (4 parameter).
A general note: In ATP-based viability assays light output follows the ATP content of the culture.

The target of another test is T4, FGFR1 (Homo sapiens, UniProt P11362).
T4 construct: made in house; host or cells: E. coli derived from BL21, infected with T7 phage
In words: Kinase binding assay (kinase-tagged T7 phage, affinity beads, qPCR readout), FGFR1. The following applies: FGFR binding data. In outline: as §1

In test [2] the test system is UM-UC-14 (Bladder Cancer), FGFR3(S249C). In words: Cancer cell viability assay (Cell Titer-Glo), UM-UC-14. The note with it: UMUC14, UM-UC-14 cells, 72 hours. It is filed as cell-based.
From the text: as §2, §3, §4, §5

The test system of test [3] is SNU-16 (Gastric Carcinoma), FGFR2 amplification. In words: Cancer cell viability assay (Cell Titer-Glo), SNU-16. The following applies: Homo sapiens, SNU-16 cells, 72 hours, read-out: SNU16 FGFR2 (IC50 nM). It is filed as cell-based. In outline: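 Cells seeded at 10,000/well in RPMI1640 with 10% FBS, then exposed 72 h at 37° C. to a 9-point 10-fold dilution series from 30 μM, in triplicate. Viability read as ATP luminescence (CellTiter-Glo 2.0) as percent of DMSO control; IC50 from 4-parameter sigmoidal fit.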

T2 sequence (P22607 23-806): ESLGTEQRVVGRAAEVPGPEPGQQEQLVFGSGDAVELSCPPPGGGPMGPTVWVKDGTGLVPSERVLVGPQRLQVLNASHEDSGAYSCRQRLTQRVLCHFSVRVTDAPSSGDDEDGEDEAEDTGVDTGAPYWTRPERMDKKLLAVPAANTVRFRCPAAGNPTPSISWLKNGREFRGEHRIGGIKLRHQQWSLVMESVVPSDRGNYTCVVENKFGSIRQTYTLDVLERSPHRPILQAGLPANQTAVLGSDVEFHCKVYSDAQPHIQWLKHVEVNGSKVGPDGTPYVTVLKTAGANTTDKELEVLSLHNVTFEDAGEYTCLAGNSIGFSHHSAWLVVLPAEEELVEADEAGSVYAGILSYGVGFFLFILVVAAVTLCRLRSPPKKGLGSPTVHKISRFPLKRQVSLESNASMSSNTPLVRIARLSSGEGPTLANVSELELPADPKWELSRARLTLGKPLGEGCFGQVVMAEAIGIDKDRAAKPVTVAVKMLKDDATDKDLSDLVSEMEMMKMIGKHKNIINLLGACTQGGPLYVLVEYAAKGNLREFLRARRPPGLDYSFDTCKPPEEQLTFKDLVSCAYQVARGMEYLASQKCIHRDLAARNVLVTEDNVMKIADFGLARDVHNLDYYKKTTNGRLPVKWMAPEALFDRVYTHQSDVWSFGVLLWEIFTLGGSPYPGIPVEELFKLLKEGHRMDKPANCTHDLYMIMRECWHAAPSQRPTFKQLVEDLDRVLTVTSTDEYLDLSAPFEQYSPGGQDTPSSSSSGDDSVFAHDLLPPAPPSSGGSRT
T1 sequence (P22607 23-806 V555M): as the sequence (P22607 23-806) above, with V533M counted along it
T4 sequence (P11362 22-822): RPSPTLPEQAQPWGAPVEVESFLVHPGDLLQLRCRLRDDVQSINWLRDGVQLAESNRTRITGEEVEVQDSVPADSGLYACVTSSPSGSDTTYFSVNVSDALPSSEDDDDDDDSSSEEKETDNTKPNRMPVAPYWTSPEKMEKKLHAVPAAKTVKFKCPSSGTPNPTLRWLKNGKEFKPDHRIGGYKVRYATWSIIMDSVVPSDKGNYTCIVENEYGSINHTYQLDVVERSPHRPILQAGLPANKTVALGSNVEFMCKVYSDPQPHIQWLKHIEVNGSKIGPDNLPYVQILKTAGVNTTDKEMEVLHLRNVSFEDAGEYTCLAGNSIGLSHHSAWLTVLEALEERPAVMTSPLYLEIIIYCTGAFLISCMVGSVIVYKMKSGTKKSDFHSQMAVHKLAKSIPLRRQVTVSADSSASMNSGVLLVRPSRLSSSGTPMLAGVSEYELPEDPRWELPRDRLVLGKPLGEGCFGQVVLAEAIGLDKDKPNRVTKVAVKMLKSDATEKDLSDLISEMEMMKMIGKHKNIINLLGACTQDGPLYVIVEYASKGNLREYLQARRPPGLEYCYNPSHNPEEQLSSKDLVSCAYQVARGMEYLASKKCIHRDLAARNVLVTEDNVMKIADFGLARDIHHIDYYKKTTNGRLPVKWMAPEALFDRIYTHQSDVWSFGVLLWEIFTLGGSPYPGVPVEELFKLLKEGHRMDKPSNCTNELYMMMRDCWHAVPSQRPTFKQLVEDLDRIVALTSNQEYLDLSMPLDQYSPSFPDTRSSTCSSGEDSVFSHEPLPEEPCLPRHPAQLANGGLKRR
T3 sequence (P21802 22-821): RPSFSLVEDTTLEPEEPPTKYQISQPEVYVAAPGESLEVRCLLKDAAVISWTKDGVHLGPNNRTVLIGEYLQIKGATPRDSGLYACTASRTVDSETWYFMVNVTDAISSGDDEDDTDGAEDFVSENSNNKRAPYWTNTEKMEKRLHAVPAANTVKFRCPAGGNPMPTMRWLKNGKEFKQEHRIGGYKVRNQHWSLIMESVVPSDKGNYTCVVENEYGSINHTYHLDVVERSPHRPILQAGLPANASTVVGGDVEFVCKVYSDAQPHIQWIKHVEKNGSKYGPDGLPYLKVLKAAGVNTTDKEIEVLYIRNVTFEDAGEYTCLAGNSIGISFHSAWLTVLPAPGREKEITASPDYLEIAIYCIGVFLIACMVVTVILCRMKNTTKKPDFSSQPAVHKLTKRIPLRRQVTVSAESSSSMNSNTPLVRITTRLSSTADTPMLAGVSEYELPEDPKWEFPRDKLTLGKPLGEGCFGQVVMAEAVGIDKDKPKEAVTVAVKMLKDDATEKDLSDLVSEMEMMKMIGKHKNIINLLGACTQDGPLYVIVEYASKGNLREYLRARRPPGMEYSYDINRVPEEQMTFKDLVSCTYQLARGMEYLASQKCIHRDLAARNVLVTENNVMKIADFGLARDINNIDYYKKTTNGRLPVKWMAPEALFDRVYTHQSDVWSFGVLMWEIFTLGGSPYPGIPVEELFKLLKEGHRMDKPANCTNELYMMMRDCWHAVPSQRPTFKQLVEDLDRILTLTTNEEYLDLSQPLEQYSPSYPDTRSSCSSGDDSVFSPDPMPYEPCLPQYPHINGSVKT

Consider `C=CC(=O)Nc1ccc2c(ccn2-c2nc(Nc3ccc(N4CCN(C)CC4)cc3)ncc2Cl)c1` [Example 1, N-[1-[5-chloro-2-[4-(4-methylpiperazin-1-yl)anilino]pyrimidin-4-yl]indol-5-yl]prop-2-enamide], for which the Kd at FGFR3 (V555M), at FGFR3, at FGFR2 and at FGFR1 was 0.1 to 100 nM throughout. Besides, the IC50 in test [1] was 100 to 250 nM.

Regarding `C=CC(=O)Nc1ccc2c(c1)c(C)cn2-c1nc(Nc2cnn(C)c2)ncc1C#N` [Example 32, N-[1-[5-cyano-2-[(1-methylpyrazol-4-yl)amino]pyrimidin-4-yl]-3-methyl-indol-5-yl]prop-2-enamide], the Kd on FGFR3 (V555M), on FGFR3, at FGFR2 and at FGFR1 was 0.1 to 100 nM each time. In addition, the IC50 in test [1] was in the range of 100 to 250 nM.

With `C=CC(=O)Nc1ccc2c(c1)c(C)cn2-c1nc(Nc2cn(C)cn2)ncc1C` [Example 36, N-[3-methyl-1-[5-methyl-2-[(1-methylimidazol-4-yl)amino]pyrimidin-4-yl]indol-5-yl]prop-2-enamide], the Kd on FGFR3 (V555M), at FGFR3, at FGFR2 and at FGFR1 was 0.1 to 100 nM each time. Besides, the IC50 was in the range of 100 to 250 nM in test [1] and 0.1 to 100 nM in test [2].

As for `C=CC(=O)Nc1ccc2c(c1)c(C)cn2-c1nc(Nc2ccc(N3CCOCC3)cc2)ncc1C#N` [Example 38, N-[1-[5-cyano-2-(4-morpholinoanilino)pyrimidin-4-yl]-3-methyl-indol-5-yl]prop-2-enamide], the Kd on FGFR3 (V555M), on FGFR3, at FGFR2 and on FGFR1 was 0.1 to 100 nM in each case. Moreover, the IC50 in test [1] lay within 0.1 to 100 nM.

For `C=CC(=O)Nc1ccc2c(c1)c(C)cn2-c1nc(Nc2c(C)nn(C)c2C)ncc1Cl` [Example 41, N-[1-[5-chloro-2-[(1,3,5-trimethylpyrazol-4-yl)amino]pyrimidin-4-yl]-3-methyl-indol-5-yl]prop-2-enamide], the Kd lay in the range of 0.1 to 100 nM at FGFR3 (V555M), 0.1 to 100 nM at FGFR3, 0.1 to 100 nM on FGFR2 and 100 to 250 nM on FGFR1. In addition, the IC50 in test [1] lay in the range of 250 to 1000 nM.

Take `C=CC(=O)Nc1ccc2c(-c3nc(Nc4ccc(N5CCN(C)CC5)cc4)ncc3Cl)cn(C)c2c1` [Example 50, N-[3-[5-chloro-2-[4-(4-methylpiperazin-1-yl)anilino]-pyrimidin-4-yl]-1-methyl-indol-6-yl]prop-2-enamide]: in test [1], the IC50 is 0.1 to 100 nM.

In the case of `C=CC(=O)Nc1ccc2c(c1)c(C)cn2-c1nc(Nc2ccc(CN3CCOCC3)c(F)c2)ncc1Cl` [Example 68, N-[1-[5-chloro-2-[3-fluoro-4-(morpholinomethyl)anilino]pyrimidin-4-yl]-3-methyl-indol-5-yl]prop-2-enamide], the Kd at FGFR3 (V555M), at FGFR3, at FGFR2 and on FGFR1 was 0.1 to 100 nM in each case. Besides, the IC50 in test [1] and in test [2] was 0.1 to 100 nM each time.

`C=CC(=O)Nc1ccc2c(c1)c(C)cn2-c1nc(Nc2ccnn2C)ncc1F` [Example 69, N-[1-[5-fluoro-2-[(2-methylpyrazol-3-yl)amino]pyrimidin-4-yl]-3-methyl-indol-5-yl]prop-2-enamide]: the Kd at FGFR3 (V555M) was 0.1 to 100 nM; at FGFR3 it was 0.1 to 100 nM; on FGFR2 it was 0.1 to 100 nM; on FGFR1, 100 to 250 nM. Also, the IC50 in test [1] and in test [2] was 0.1 to 100 nM throughout.

As for `C=CC(=O)Nc1ccc2c(c1)c(C)cn2-c1nc(Nc2cn(C)nc2C#N)ncc1Cl` [Example 70, N-[1-[5-chloro-2-[(3-cyano-1-methyl-pyrazol-4-yl)amino]pyrimidin-4-yl]-3-methyl-indol-5-yl]prop-2-enamide], the Kd at FGFR3 (V555M) was 0.1 to 100 nM; at FGFR3 it was 0.1 to 100 nM; at FGFR2, 0.1 to 100 nM; at FGFR1, 100 to 250 nM. Moreover, in test [1], the IC50 was in the range of 250 to 1000 nM.

For the compound `C=CC(=O)Nc1ccc2c(c1)c(C)cn2-c1nc(Nc2cccc(CN3CCOCC3)c2)ncc1Cl` [Example 78, N-[1-[5-chloro-2-[3-(morpholinomethyl)anilino]pyrimidin-4-yl]-3-methyl-indol-5-yl]prop-2-enamide], the Kd on FGFR3 (V555M), on FGFR3, at FGFR2 and at FGFR1 was 0.1 to 100 nM each time. Moreover, the IC50 in test [1] and in test [3] was 0.1 to 100 nM throughout.

`C=CC(=O)Nc1ccc2c(c1)c(C)cn2-c1nc(Nc2cnn(CCO)c2)ncc1C` [Example 121, N-[1-[2-[[1-(2-hydroxyethyl)pyrazol-4-yl]amino]-5-methyl-pyrimidin-4-yl]-3-methyl-indol-5-yl]prop-2-enamide]: the Kd at FGFR3 (V555M), on FGFR3, on FGFR2 and at FGFR1 was 0.1 to 100 nM throughout. Further, the IC50 in test [1], in test [3] and in test [2] was 0.1 to 100 nM each time.

Consider `C=CC(=O)Nc1ccc2c(c1)c(C)cn2-c1nc(Nc2cnn(C[C@@H](C)O)c2)ncc1F` [Example 185, N-[1-[5-Fluoro-2-[[1-[(2R)-2-hydroxypropyl]pyrazol-4-yl]amino]pyrimidin-4-yl]-3-methyl-indol-5-yl]prop-2-enamide], for which the Kd on FGFR3 (V555M), on FGFR3, on FGFR2 and at FGFR1 was 0.1 to 100 nM throughout. In addition, the IC50 in test [1] and in test [3] was 0.1 to 100 nM in each case.

Regarding `C=CC(=O)Nc1ccc2c(c1)c(C)cn2-c1nc(Nc2cnn(C[C@H](C)O)c2)ncc1F` [Example 186, N-[1-[5-Fluoro-2-[[1-[(2S)-2-hydroxypropyl]pyrazol-4-yl]amino]pyrimidin-4-yl]-3-methyl-indol-5-yl]prop-2-enamide], the Kd at FGFR3 (V555M), at FGFR3, at FGFR2 and at FGFR1 was 0.1 to 100 nM in each case. For the same compound, the IC50 in test [1] and in test [3] was 0.1 to 100 nM throughout.

As to `C=CC(=O)Nc1ccc2c(c1)c(C)cn2-c1nc(Nc2cn(C)nc2C)ncc1C` [Example 187, N-[1-[2-[(1,3-dimethylpyrazol-4-yl)amino]-5-methyl-pyrimidin-4-yl]-3-methyl-indol-5-yl]prop-2-enamide], the Kd at FGFR3 (V555M), at FGFR3, on FGFR2 and on FGFR1 was 0.1 to 100 nM each time. For the same compound, the IC50 in test [1] and in test [3] was 0.1 to 100 nM throughout.

As to `C=CC(=O)Nc1ccc2c(-c3ccnc(Nc4cnn(C(F)F)c4)n3)cn(C)c2c1` [Example 188, N-[3-[2-[[1-(difluoromethyl)pyrazol-4-yl]amino]pyrimidin-4-yl]-1-methyl-indol-6-yl]prop-2-enamide], the Kd on FGFR3 (V555M), at FGFR3, at FGFR2 and at FGFR1 was 0.1 to 100 nM each time. Besides, the IC50 in test [1] and in test [2] was 0.1 to 100 nM in each case.

Turning to `C=CC(=O)Nc1ccc2c(-c3ccnc(Nc4cnn(C5CCC5)c4)n3)cn(C)c2c1` [Example 189, N-[3-[2-[(1-cyclobutylpyrazol-4-yl)amino]pyrimidin-4-yl]-1-methyl-indol-6-yl]prop-2-enamide], the Kd at FGFR3 (V555M), on FGFR3, at FGFR2 and at FGFR1 was 0.1 to 100 nM each time. The IC50 in test [1] and in test [2] was 0.1 to 100 nM in each case.
